Literature values, collected in patent publication US20080064694A1, “Multi-Phase Release Methscopolamine Compositions” (Auriga Laboratories, Inc., priority 2006, published 2008).
“Also recorded” adds a separate entry of the source.

Conditions: following administration of methscopolamine bromide

[7(S)-( 1α, 2β, 4β, 5α, 7β)]-7-(3-hydroxy-1oxo-2-phenylpropoxy)-9,9-dimethyl-3-Oxo-9-azoniatricyclo[3.3.1.0]nonane [Methscopolamine bromide]
adverse reactions observed: Tachycardia, palpitation; also recorded: Severe allergic reaction or drug idiosyncrasies including anaphylaxis; also recorded: Headaches, nervousness, mental confusion, drowsiness, dizziness; also recorded: Blurred vision, dilation of the pupil, cycloplegia, increased ocular tension, loss of taste; also recorded: Urinary hesitancy and retention; also recorded: Nausea, vomiting, constipation, bloated feeling; also recorded: Decreased sweating, urticaria and other dermal manifestations; also recorded: Xerostomia, weakness, insomnia, impotence, suppression of lactation
